According to patent publication US20070026072A1, “Benzoquinones of enhanced bioavailability” (priority 2005, published 2007):

Columns and labels:
[1] = Dissolution, USP apparatus II (paddles), media containing Cremophor EL and 4% Acconon MC8; assay type: physicochemical; details: Example 6
Method: Dissolution properties were measured on the four spray dried powders of Example 1, crystalline CoQ10 and two commercial CoQ10 products (one soft gel and one dry powder capsule). All non-commercial samples were hand-filled into size 1 gelatin capsules (Shinogi Qualicaps). USP apparatus II (paddles) (VK 70100®, Varian Inc.) was used, with a bath temperature of 37° C. at 50 rpm for the first 60 minutes and then 200 rpm for an additional 15 minutes. The media contained Cremophoro EL (BASF Corp.), and 4% Acconono® MC8 (Abitec Corp.). Analysis was performed using high pressure liquid chromatography (HPLC) with UV detection (SCL-10 controller with SPD-10A detector module, Shimadzu Scientific Instruments)

[2] = Crystallinity of CoQ10 by modulated differential scanning calorimetry (MDSC); assay type: physicochemical; details: Example 6, 20% total solids; MDSC heat-only, aluminum hermetic pans
Description: Four spray dried powders were made containing CoQ10 and two solubility-enhancing polymers at two CoQ10:polymer ratios for each polymer.

[3] = dissolution method of Example 2

In the case of COC1=C(OC)C(=O)C(C/C=C(\C)CC/C=C(\C)CC/C=C(\C)CC/C=C(\C)CC/C=C(\C)CC/C=C(\C)CC/C=C(\C)CC/C=C(\C)CC/C=C(\C)CCC=C(C)C)=C(C)C1=O [CoQ10 (as received), Coenzyme Q10], the “t50% (time for 50% CoQ10 dissolution)” value [1, 3] is reported as “not attained”, the “t80% (time for 80% CoQ10 dissolution)” value [1, 3] is reported as “not attained” and the “max. CoQ10 release” value ([1]; dissolution method of Example 2, 75 minutes) is reported as 4.3%. For the same molecule, the crystallinity [2] was 100%.
